Data reported in PubChem BioAssay (NCI).
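Growth conditions: 96-well plates. Treatment: test compound, 48 hours, 5 concentrations. Analysis: linear interpolation between bracketing concentrations; unreached endpoints set to highest concentration. Abbreviation: GI50, concentration required for 50% inhibition of growth. TGI: total growth inhibition.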

What was measured:
Assay in all cases: DTP human tumour cell line panel, 48 h
786-0 renal = tested on: 786-0 renal
A498 renal = tested on: A498 renal
A549 NSCLC = tested on: A549 NSCLC
ACHN renal = tested on: ACHN renal
BT-549 breast = tested on: BT-549 breast
CAKI-1 renal = tested on: CAKI-1 renal
CCRF-CEM leukemia = tested on: CCRF-CEM leukemia
COLO 205 colon = tested on: COLO 205 colon
DU-145 prostate = tested on: DU-145 prostate
EKVX NSCLC = tested on: EKVX NSCLC
HCC-2998 colon = tested on: HCC-2998 colon
HCT-116 colon = tested on: HCT-116 colon
HCT-15 colon = tested on: HCT-15 colon
HL-60(TB) leukemia = tested on: HL-60(TB) leukemia
HOP-62 NSCLC = tested on: HOP-62 NSCLC
HOP-92 NSCLC = tested on: HOP-92 NSCLC
HS 578T breast = tested on: HS 578T breast
HT29 colon = tested on: HT29 colon
IGROV1 ovarian = tested on: IGROV1 ovarian
K-562 leukemia = tested on: K-562 leukemia
KM12 colon = tested on: KM12 colon
LOX IMVI melanoma = tested on: LOX IMVI melanoma
M14 melanoma = tested on: M14 melanoma
MALME-3M melanoma = tested on: MALME-3M melanoma
MCF7 breast = tested on: MCF7 breast
MDA-MB-231 breast = tested on: MDA-MB-231 breast
MDA-MB-435 = tested on: MDA-MB-435
MOLT-4 leukemia = tested on: MOLT-4 leukemia
NCI-H226 lung = tested on: NCI-H226 lung
NCI-H23 lung = tested on: NCI-H23 lung
NCI-H460 lung = tested on: NCI-H460 lung
NCI-H522 lung = tested on: NCI-H522 lung
NCI/ADR-RES ovarian = tested on: NCI/ADR-RES ovarian
OVCAR-3 ovarian = tested on: OVCAR-3 ovarian
OVCAR-4 ovarian = tested on: OVCAR-4 ovarian
OVCAR-5 ovarian = tested on: OVCAR-5 ovarian
OVCAR-8 ovarian = tested on: OVCAR-8 ovarian
PC-3 prostate = tested on: PC-3 prostate
RPMI-8226 leukemia = tested on: RPMI-8226 leukemia
SF-268 CNS = tested on: SF-268 CNS
SF-295 CNS = tested on: SF-295 CNS
SF-539 CNS = tested on: SF-539 CNS
SK-MEL-2 melanoma = tested on: SK-MEL-2 melanoma
SK-MEL-28 melanoma = tested on: SK-MEL-28 melanoma
SK-MEL-5 melanoma = tested on: SK-MEL-5 melanoma
SK-OV-3 ovarian = tested on: SK-OV-3 ovarian
SN12C renal = tested on: SN12C renal
SNB-19 CNS = tested on: SNB-19 CNS
SNB-75 CNS = tested on: SNB-75 CNS
SR leukemia = tested on: SR leukemia
SW-620 colon = tested on: SW-620 colon
T-47D breast = tested on: T-47D breast
TK-10 renal = tested on: TK-10 renal
U251 CNS = tested on: U251 CNS
UACC-257 melanoma = tested on: UACC-257 melanoma
UACC-62 melanoma = tested on: UACC-62 melanoma
UO-31 renal = tested on: UO-31 renal

N#Cc1cnc(=O)n(C2CC(O)C(CO)O2)c1 (centres undefined)
GI50 (786-0 renal): > 100 µM | TGI (786-0 renal): > 100 µM | GI50 (A498 renal): 17.5 µM | TGI (A498 renal): 82 µM | GI50 (A549 NSCLC): > 100 µM | TGI (A549 NSCLC): > 100 µM | GI50 (ACHN renal): > 100 µM | TGI (ACHN renal): > 100 µM | GI50 (BT-549 breast): > 100 µM | TGI (BT-549 breast): > 100 µM | GI50 (CAKI-1 renal): > 100 µM | TGI (CAKI-1 renal): > 100 µM | GI50 (CCRF-CEM leukemia): > 100 µM | TGI (CCRF-CEM leukemia): > 100 µM | GI50 (COLO 205 colon): > 100 µM | TGI (COLO 205 colon): > 100 µM | GI50 (DU-145 prostate): > 100 µM | TGI (DU-145 prostate): > 100 µM | GI50 (EKVX NSCLC): > 100 µM | TGI (EKVX NSCLC): > 100 µM | GI50 (HCC-2998 colon): > 100 µM | TGI (HCC-2998 colon): > 100 µM | GI50 (HCT-116 colon): > 100 µM | TGI (HCT-116 colon): > 100 µM | GI50 (HCT-15 colon): > 100 µM | TGI (HCT-15 colon): > 100 µM | GI50 (HL-60(TB) leukemia): > 100 µM | TGI (HL-60(TB) leukemia): > 100 µM | GI50 (HOP-62 NSCLC): > 100 µM | TGI (HOP-62 NSCLC): > 100 µM | GI50 (HOP-92 NSCLC): > 100 µM | TGI (HOP-92 NSCLC): > 100 µM | GI50 (HS 578T breast): > 100 µM | TGI (HS 578T breast): > 100 µM | GI50 (HT29 colon): > 100 µM | TGI (HT29 colon): > 100 µM | GI50 (IGROV1 ovarian): > 100 µM | TGI (IGROV1 ovarian): > 100 µM | GI50 (K-562 leukemia): 93.1 µM | TGI (K-562 leukemia): > 100 µM | GI50 (KM12 colon): > 100 µM | TGI (KM12 colon): > 100 µM | GI50 (LOX IMVI melanoma): > 100 µM | TGI (LOX IMVI melanoma): > 100 µM | GI50 (M14 melanoma): > 100 µM | TGI (M14 melanoma): > 100 µM | GI50 (MALME-3M melanoma): > 100 µM | TGI (MALME-3M melanoma): > 100 µM | GI50 (MCF7 breast): > 100 µM | TGI (MCF7 breast): > 100 µM | GI50 (MDA-MB-231 breast): > 100 µM | TGI (MDA-MB-231 breast): > 100 µM | GI50 (MDA-MB-435): > 100 µM | TGI (MDA-MB-435): > 100 µM | GI50 (MOLT-4 leukemia): > 100 µM | TGI (MOLT-4 leukemia): > 100 µM | GI50 (NCI-H226 lung): > 100 µM | TGI (NCI-H226 lung): > 100 µM | GI50 (NCI-H23 lung): > 100 µM | TGI (NCI-H23 lung): > 100 µM | GI50 (NCI-H460 lung): > 100 µM | TGI (NCI-H460 lung): > 100 µM | GI50 (NCI-H522 lung): > 100 µM | TGI (NCI-H522 lung): > 100 µM | GI50 (NCI/ADR-RES ovarian): > 100 µM | TGI (NCI/ADR-RES ovarian): > 100 µM | GI50 (OVCAR-3 ovarian): > 100 µM | TGI (OVCAR-3 ovarian): > 100 µM | GI50 (OVCAR-4 ovarian): > 100 µM | TGI (OVCAR-4 ovarian): > 100 µM | GI50 (OVCAR-5 ovarian): > 100 µM | TGI (OVCAR-5 ovarian): > 100 µM | GI50 (OVCAR-8 ovarian): > 100 µM | TGI (OVCAR-8 ovarian): > 100 µM | GI50 (PC-3 prostate): > 100 µM | TGI (PC-3 prostate): > 100 µM | GI50 (RPMI-8226 leukemia): > 100 µM | TGI (RPMI-8226 leukemia): > 100 µM | GI50 (SF-268 CNS): > 100 µM | TGI (SF-268 CNS): > 100 µM | GI50 (SF-295 CNS): > 100 µM | TGI (SF-295 CNS): > 100 µM | GI50 (SF-539 CNS): > 100 µM | TGI (SF-539 CNS): > 100 µM | GI50 (SK-MEL-2 melanoma): > 100 µM | TGI (SK-MEL-2 melanoma): > 100 µM | GI50 (SK-MEL-28 melanoma): > 100 µM | TGI (SK-MEL-28 melanoma): > 100 µM | GI50 (SK-MEL-5 melanoma): > 100 µM | TGI (SK-MEL-5 melanoma): > 100 µM | GI50 (SK-OV-3 ovarian): > 100 µM | TGI (SK-OV-3 ovarian): > 100 µM | GI50 (SN12C renal): > 100 µM | TGI (SN12C renal): > 100 µM | GI50 (SNB-19 CNS): > 100 µM | TGI (SNB-19 CNS): > 100 µM | GI50 (SNB-75 CNS): 44.1 µM | TGI (SNB-75 CNS): > 100 µM | GI50 (SR leukemia): > 100 µM | TGI (SR leukemia): > 100 µM | GI50 (SW-620 colon): > 100 µM | TGI (SW-620 colon): > 100 µM | GI50 (T-47D breast): > 100 µM | TGI (T-47D breast): > 100 µM | GI50 (TK-10 renal): > 100 µM | TGI (TK-10 renal): > 100 µM | GI50 (U251 CNS): > 100 µM | TGI (U251 CNS): > 100 µM | GI50 (UACC-257 melanoma): > 100 µM | TGI (UACC-257 melanoma): > 100 µM | GI50 (UACC-62 melanoma): > 100 µM | TGI (UACC-62 melanoma): > 100 µM | GI50 (UO-31 renal): 51.6 µM | TGI (UO-31 renal): > 100 µM
